Results reported in patent EP0694535A1, “Non-peptidyl tachykinin receptor antagonists” (ELI LILLY AND COMPANY, priority 1994, dated 1996).

Legend:
NK-1 receptor = target: T1, NK-1 receptor (Homo sapiens, UniProt P25103); test: NK-1 Receptor Binding Assay (competition with labeled substance P on IM9 cells); details: for inhibition at 10 µM: inhibition of substance P binding to the NK-1 receptor, read-out: Percent Inhibition; for IC50: concentration which inhibits fifty percent of the binding of substance P, 20 pM labeled substance P, 45 minutes at 4°C
T1 construct: an aliquot of IM9 cells; endogenous in cells; host or cells: IM9 cells (whole cells)
Method: Radioreceptor binding assays were performed using a derivative of a previously published protocol. D.G. Payan, et al., Journal of Immunology, 133:3260-3265 (1984). In this assay an aliquot of IM9 cells (1 x 10⁶ cells/tube in […] medium supplemented with 10% fetal calf serum) was incubated with 20 pM […] substance P in the presence of increasing competitor concentrations for 45 minutes at 4°C.
The IM9 cell line is a well-characterized cell line which is readily available to the public. See. e.g., Annals of the New York Academy of Science, 190: 221-234 (1972); Nature (London), 251:443-444 (1974); Proceedings of the National Academy of Sciences (USA), 71:84-88 (1974). These cells were routinely cultured in RPMI 1640 supplemented with 50 µg/ml gentamicin sulfate and 10% fetal calf serum.
The reaction was terminated by filtration through a glass fiber filter harvesting system using filters previously soaked for 20 minutes in 0.1% polyethylenimine. Specific binding of labeled substance P was determined in the presence of 20 nM unlabeled ligand.
Column 1 provides the example number of the test antagonist compound. The next columns detail the substitution patterns of the test compound.

human NK-2 receptor = target: T2, human NK-2 receptor (Homo sapiens, UniProt P21452); test: NK-2 Receptor Binding Assay (CHO-hNK-2R membranes, iodohistidyl-neurokinin A); details: for inhibition at 10 µM: inhibition of neurokinin A binding at ten micromolar, read-out: Percent Inhibition @ 10 μM
T2 construct: expressed in transfected cells; host or cells: CHO-hNK-2R cells (CHO-derived), membrane preparation
T2 sequence (P21452 1-398): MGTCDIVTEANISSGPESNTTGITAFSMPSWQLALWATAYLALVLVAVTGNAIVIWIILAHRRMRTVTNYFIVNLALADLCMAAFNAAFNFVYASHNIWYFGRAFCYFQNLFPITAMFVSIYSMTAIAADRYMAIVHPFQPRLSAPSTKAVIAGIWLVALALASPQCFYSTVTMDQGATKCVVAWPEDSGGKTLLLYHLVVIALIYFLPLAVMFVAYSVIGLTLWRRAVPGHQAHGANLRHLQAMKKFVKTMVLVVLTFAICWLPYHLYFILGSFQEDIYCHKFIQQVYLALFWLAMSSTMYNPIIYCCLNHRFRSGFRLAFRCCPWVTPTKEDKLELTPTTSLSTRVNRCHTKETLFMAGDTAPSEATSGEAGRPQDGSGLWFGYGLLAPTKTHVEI
Method: The CHO-hNK-2R cells, a CHO-derived cell line transformed with the human NK-2 receptor, expressing about 400,000 such receptors per cell, were grown in 75 cm flasks or roller bottles in minimal essential medium (alpha modification) with 10% fetal bovine serum. The gene sequence of the human NK-2 receptor is given in N.P. Gerard, et al., Journal of Biological Chemistry, 265:20455-20462 (1990).
For preparation of membranes, 30 confluent roller bottle cultures were dissociated by washing each roller bottle with 10 ml of Dulbecco's phosphate buffered saline (PBS) without calcium and magnesium, followed by addition of 10 ml of enzyme-free cell dissociation solution (PBS-based, from Specialty Media, Inc.). After an additional 15 minutes, the dissociated cells were pooled and centrifuged at 1,000 RPM for 10 minutes in a clinical centrifuge. Membranes were prepared by homogenization of the cell pellets in 300 ml 50 mM Tris buffer, pH 7.4 with a Tekmar® homogenizer for 10-15 seconds, followed by centrifugation at 12,000 RPM (20,000 x g) for 30 minutes using a Beckman JA-14® rotor. The pellets were washed once using the above procedure. and the final pellets were resuspended in 100-120 ml 50 mM Tris buffer, pH 7.4, and 4 ml aliquots stored frozen at -70 °C. The protein concentration of this preparation was 2 mg/ml.
For the receptor binding assay, one 4-ml aliquot of the CHO-hNK-2R membrane preparation was suspended in 40 ml of assay buffer containing 50 mM Tris, pH 7.4, 3 mM manganese chloride, 0.02% bovine serum albumin (BSA) and 4 µg/ml chymostatin. A 200 µl volume of the homogenate (40 µg protein) was used per sample. The radioactive ligand was [[…]]iodohistidyl-neurokinin A (New England Nuclear, NEX-252), 2200 Ci/mmol. The ligand was prepared in assay buffer at 20 nCi per 100 µl; the final concentration in the assay was 20 pM. Non-specific binding was determined using 1 µM eledoisin. Ten concentrations of eledoisin from 0.1 to 1000 nM were used for a standard concentration-response curve.
All samples and standards were added to the incubation in 10 µl dimethylsulfoxide (DMSO) for screening (single dose) or in 5 µl DMSO for IC₅₀ determinations. The order of additions for incubation was 190 or 195 µl assay buffer, 200 µl homogenate, 10 or 5 µl sample in DMSO, 100 µl radioactive ligand. The samples were incubated 1 hr at room temperature and then filtered on a cell harvester through filters which had been presoaked for two hours in 50 mM Tris buffer, pH 7.7, containing 0.5% BSA. The filter was washed 3 times with approximately 3 ml of cold 50 mM Tris buffer, pH 7.7. The filter circles were then punched into 12 x 75 mm polystyrene tubes and counted in a gamma counter.
Table II, infra, provides a representative sample of the effectiveness as NK-2 receptor antagonists of many of the compounds of Formula I. The first column provides the Example number of the compound tested. The second column provides either the percent inhibition of neurokinin A binding when the compound is present in a ten micromolar concentration or the amount of compound (in micromolar amounts) necessary to inhibit fifty percent of the binding of neurokinin A. Those values which represent IC₅₀ values are designated by parentheses.

T1 sequence (P25103 whole entry): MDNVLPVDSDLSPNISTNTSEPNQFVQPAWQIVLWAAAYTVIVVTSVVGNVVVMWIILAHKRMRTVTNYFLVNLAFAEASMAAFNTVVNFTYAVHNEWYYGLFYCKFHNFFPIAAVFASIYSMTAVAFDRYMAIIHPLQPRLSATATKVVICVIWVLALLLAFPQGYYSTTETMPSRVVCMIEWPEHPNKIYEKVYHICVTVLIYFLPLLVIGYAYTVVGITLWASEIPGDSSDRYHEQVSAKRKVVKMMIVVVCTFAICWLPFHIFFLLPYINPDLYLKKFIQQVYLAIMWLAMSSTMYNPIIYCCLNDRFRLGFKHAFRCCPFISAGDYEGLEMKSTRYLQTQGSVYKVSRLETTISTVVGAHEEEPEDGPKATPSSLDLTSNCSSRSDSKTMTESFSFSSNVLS

Row | SMILES | inhibition at 10 µM (NK-1 receptor) | inhibition at 10 µM (human NK-2 receptor) | IC50 (NK-1 receptor) | IC50 (human NK-2 receptor; values in parentheses, amount necessary to inhibit fifty percent of the binding of neurokinin A)
1 | COc1cccc(Cn2c(-c3cc(OC)c(OC)c(OC)c3)nc3ccccc32)c1 [Example 45, 1-(3-methoxybenzyl)-2-(3,4,5-trimethoxyphenyl)-benzimidazole] | 81% | 23.2% |  | 
2 | COc1cc(-c2nc3ccccc3n2Cc2c(Cl)cccc2Cl)cc(OC)c1OC [Example 52, 1-(2,6-dichlorobenzyl)-2-(3,4,5-trimethoxyphenyl)-benzimidazole] | 20% | -7.1% |  | 
3 | COc1cc(-c2nc3ccccc3n2Cc2ccc(Cl)c(Cl)c2)cc(OC)c1OC [Example 53, 1-(3,4-dichlorobenzyl)-2-(3,4,5-trimethoxyphenyl)-benzimidazole] | 45% | 33.4% |  | 
4 | COc1cc(-c2nc3ccccc3n2Cc2ccc(Cl)cc2Cl)cc(OC)c1OC [Example 54, 1-(2,4-dichlorobenzyl)-2-(3,4,5-trimethoxyphenyl)-benzimidazole] | 56% | 86.2% |  | 
5 | COc1cc(-c2nc3ccc(OCCN4CCOCC4)cc3n2Cc2ccccc2)cc(OC)c1OC [Example 70, 1-benzyl-2-(3,4,5-trimethoxyphenyl)-6-[2-(4-morpholinyl)ethoxy]benzimidazole] |  | 63.7% | 85 nM | 
6 | COc1cc(-c2nc3ccc(OCCN4CCCCC4)cc3n2Cc2ccccc2)cc(OC)c1OC [Example 71, 1-benzyl-2-(3,4,5-trimethoxyphenyl)-6-[2-(1-piperidinyl)ethoxy]benzimidazole] |  | 70.1% | 60 nM | 
7 | COc1cc(-c2nc3ccc(OCCN4CCCC4)cc3n2Cc2ccccc2)cc(OC)c1OC [Example 72, 1-benzyl-2-(3,4,5-trimethoxyphenyl)-6-[2-(1-pyrroldinyl)ethoxy]benzimidazole] |  | 53.8% | 74 nM | 
8 | COc1cc(-c2nc3ccc(OCCN4CCCCCC4)cc3n2Cc2ccccc2)cc(OC)c1OC [Example 73, 1-benzyl-2-(3,4,5-trimethoxyphenyl)-6-[2-(1-hexamethyleneiminyl)ethoxy]benzimidazole] |  | 83.5% | 52 nM | 
9 | COc1cc(-c2nc3ccc(OCCCN4CCCCC4)cc3n2Cc2ccccc2)cc(OC)c1OC [Example 74, 1-benzyl-2-(3,4,5-trimethoxyphenyl)-6-[3-(1-piperidinyl)propoxy]benzimidazole] |  | 78% | 85 nM | 
10 | COc1cc(-c2nc3ccc(OCCCCl)cc3n2Cc2ccccc2)cc(OC)c1OC [Example 75, 1-benzyl-2-(3,4,5-trimethoxyphenyl)-6-(3-chloropropoxy)benzimidazole] |  | 86.3% | 814 nM | 
11 | COc1cc(-c2nc3ccc(OCCCl)cc3n2Cc2ccccc2)cc(OC)c1OC [Example 76, 1-benzyl-2-(3,4,5-trimethoxyphenyl)-6-(2-chloroethoxy)benzimidazole] |  |  | 329 nM | 7480 nM

Now from value to compound:

Row | inhibition at 10 µM (NK-1 receptor) | inhibition at 10 µM (human NK-2 receptor) | IC50 (NK-1 receptor) | IC50 (human NK-2 receptor; values in parentheses, amount necessary to inhibit fifty percent of the binding of neurokinin A) | SMILES
12 | 56% | -1.5% |  |  | COc1ccc(Cn2c(-c3cc(OC)c(OC)c(OC)c3)nc3ccccc32)cc1 [Example 46, 1-(4-methoxybenzyl)-2-(3,4,5-trimethoxyphenyl)-benzimidazole]
13 |  | 67.7% | 449 nM |  | COc1ccccc1Cn1c(-c2cc(OC)c(OC)c(OC)c2)nc2ccccc21 [Example 47, 1-(2-methoxybenzyl)-2-(3,4,5-trimethoxyphenyl)-benzimidazole]
14 |  | 44.2% | 1390 nM |  | COc1cc(-c2nc3ccccc3n2Cc2ccccc2F)cc(OC)c1OC [Example 48, 1-(2-fluorobenzyl)-2-(3,4,5-trimethoxyphenyl)-benzimidazole]
15 |  | 82% | 721 nM |  | COc1cc(-c2nc3ccccc3n2Cc2ccccc2C(F)(F)F)cc(OC)c1OC [Example 49, 1-(2-trifluoromethylbenzyl)-2-(3,4,5-trimethoxyphenyl)-benzimidazole]
16 |  | 87.4% | 823 nM |  | COc1cc(-c2nc3ccccc3n2Cc2ccccc2I)cc(OC)c1OC [Example 50, 1-(2-iodobenzyl)-2-(3,4,5-trimethoxyphenyl)-benzimidazole]
17 |  | 84.8% | 591 nM |  | COc1cc(-c2nc3ccccc3n2Cc2ccccc2Br)cc(OC)c1OC [Example 51, 1-(2-bromobenzyl)-2-(3,4,5-trimethoxyphenyl)-benzimidazole]
18 | 53% | 21.9% |  |  | COc1cc(-c2nc3ccccc3n2Cc2ccc(C)cc2)cc(OC)c1OC [Example 55, 1-(4-methylbenzyl)-2-(3,4,5-trimethoxyphenyl)-benzimidazole]
19 | 71% | 63.7% |  |  | Cc1cccc(-c2nc3ccccc3n2Cc2ccccc2Cl)c1 [Example 56, 1-(2-chlorobenzyl)-2-(3-methylphenyl)-benzimidazole]
20 |  | 50.8% | 2650 nM |  | Cc1cccc(-c2nc3ccccc3n2Cc2cccc(Cl)c2)c1 [Example 57, 1-(3-Chlorobenzyl)-2-(3-methylphenyl)benzimidazole]
21 | 29% | 42.9% |  |  | Cc1cccc(-c2nc3ccccc3n2Cc2ccc(Cl)cc2)c1 [Example 58, 1-(4-Chlorobenzyl)-2-(3-methylphenyl)benzimidazole]
22 | 72% | 62.6% |  |  | Cc1cccc(-c2nc3ccccc3n2Cc2ccccc2Br)c1 [Example 60, 1-(2-Bromobenzyl)-2-(3-methylphenyl)benzimidazole]
23 | 66% | 60.1% |  |  | Cc1cccc(-c2nc3ccccc3n2Cc2ccccc2I)c1 [Example 61, 1-(2-Iodobenzyl)-2-(3-methylphenyl)benzimidazole]
24 | 31% | 23.1% |  |  | Cc1cccc(-c2nc3ccccc3n2Cc2c(Cl)cccc2Cl)c1 [Example 62, 1-(2,6-Dichlorobenzyl)-2-(3-methylphenyl)benzimidazole]
25 | 41% | 58.7% |  |  | Cc1cccc(-c2nc3ccccc3n2Cc2ccc(Cl)c(Cl)c2)c1 [Example 64, 1-(3,4-Dichlorobenzyl)-2-(3-methylphenyl)benzimidazole]
